According to patent US20100120858A1, “Piperidine Derivatives” (Pfizer Inc., priority 2006, published 2010):

Legend:
[1] = biological target: human serotonin transporter (Homo sapiens, UniProt P31645); experiment: Human serotonin (hSERT) receptor binding, [125I]-RTI-55; details: membranes of HEK-293 cells transfected with human serotonin transporter cDNA, IC50 converted by Cheng-Prusoff
Procedure: (§1) Cell pastes of HEK-293 cells transfected with a human serotonin transporter cDNA were prepared. The cell pastes were resuspended in 400 to 700 ml of Krebs-HEPES assay buffer (25 mM HEPES, 122 mM NaCl, 3 mM KCl, 1.2 mM MgSO4, 1.3 mM CaCl2, and 11 mM glucose, pH 7.4) with a Polytron homogenizer at Setting 7 for 30 seconds. Aliquots of membranes (˜2.5 mg/mL protein) were stored in liquid nitrogen until used.
Assays were set up in FlashPlates pre-coated with 0.1% polyethyleneimine (PEI) in a total volume of 250 μL containing: test compound (concentration 10^−5M to 10^−12M), cell membranes, and […] [^125I]-RTI-55 (Perkin Elmer, NEX-272; specific activity 2200 Ci/mmol). The reaction was incubated and gently agitated for 90 minutes at room temperature, and terminated by removal of assay volume. Plates were covered, and bound [^125I]-RTI-55 was determined using a Wallac Trilux Beta Plate Counter. Test compounds were run in duplicate, and specific binding was defined as the difference between binding in the presence and absence of 10 μM citalopram.
Excel and GraphPad Prism software were used for data calculation and analysis. IC50 values were converted to Ki values using the Cheng-Prusoff equation.

[2] = biological target: human norepinephrine transporter (Homo sapiens, UniProt P23975); experiment: Human norepinephrine (hNET) receptor binding, [125I]-RTI-55; details: membranes of HEK-293 cells transfected with human norepinephrine transporter cDNA; 50 pM [125I]-RTI-55; IC50 converted by Cheng-Prusoff
Procedure: as §1, with “human embryonic kidney 293 (HEK-293)” for “HEK-293”, “norepinephrine” for “serotonin”, “mL” for “ml”, “Krebs-N-2-hydroxyethylpiperazine-N′-2-ethanesulfonic acid (HEPES)” for “Krebs-HEPES”, “setting” for “Setting”, “(5” for “(˜2.5”
The binding assay was set up in Beckman deep-well polypropylene plates with a total volume of 250 μL containing: test compound (concentration of 10^−5M to 10^−12M), cell membranes, and 50 pM [^125I]-RTI-55 ([^125I]-3 beta-(4-iodophenyl)tropan-2 beta-carboxylic acid methyl ester) (Perkin Elmer, NEX-272; specific activity 2200 Ci/mmol). The reaction was incubated by gentle agitation for 90 minutes at room temperature and was terminated by filtration through Whatman GF/C filter plates using a Brandel 96-well plate harvester. Scintillation fluid (100 μL) was added to each well, and bound [^125I]-RTI-55 was determined using a Wallac Trilux Beta Plate Counter. Test compounds were run in duplicate, and specific binding was defined as the difference between binding in the presence and absence of 10 μM desipramine.
Excel and GraphPad Prism software were used for data calculation and analysis. IC50 values were converted to Ki values using the Cheng-Prusoff equation. The Ki values (nM) for the hNET are reported below in Table 13.

Sequence of human norepinephrine transporter (P23975 whole entry): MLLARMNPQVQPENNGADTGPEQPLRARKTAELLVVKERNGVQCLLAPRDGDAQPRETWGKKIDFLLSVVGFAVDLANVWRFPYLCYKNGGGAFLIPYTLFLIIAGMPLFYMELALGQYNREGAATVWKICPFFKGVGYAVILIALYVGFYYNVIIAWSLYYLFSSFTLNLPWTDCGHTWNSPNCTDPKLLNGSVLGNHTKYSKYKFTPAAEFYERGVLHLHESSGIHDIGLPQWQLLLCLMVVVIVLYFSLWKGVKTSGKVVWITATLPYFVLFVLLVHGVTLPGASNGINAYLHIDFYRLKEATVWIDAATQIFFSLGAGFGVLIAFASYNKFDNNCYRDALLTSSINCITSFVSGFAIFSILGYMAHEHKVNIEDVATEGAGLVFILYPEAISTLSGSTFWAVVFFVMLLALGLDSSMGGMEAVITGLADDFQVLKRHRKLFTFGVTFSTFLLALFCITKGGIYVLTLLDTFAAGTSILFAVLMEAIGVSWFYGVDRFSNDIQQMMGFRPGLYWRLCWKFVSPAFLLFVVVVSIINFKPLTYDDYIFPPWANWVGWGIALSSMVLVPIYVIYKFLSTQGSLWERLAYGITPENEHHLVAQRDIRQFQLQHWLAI
Sequence of human serotonin transporter (P31645 whole entry): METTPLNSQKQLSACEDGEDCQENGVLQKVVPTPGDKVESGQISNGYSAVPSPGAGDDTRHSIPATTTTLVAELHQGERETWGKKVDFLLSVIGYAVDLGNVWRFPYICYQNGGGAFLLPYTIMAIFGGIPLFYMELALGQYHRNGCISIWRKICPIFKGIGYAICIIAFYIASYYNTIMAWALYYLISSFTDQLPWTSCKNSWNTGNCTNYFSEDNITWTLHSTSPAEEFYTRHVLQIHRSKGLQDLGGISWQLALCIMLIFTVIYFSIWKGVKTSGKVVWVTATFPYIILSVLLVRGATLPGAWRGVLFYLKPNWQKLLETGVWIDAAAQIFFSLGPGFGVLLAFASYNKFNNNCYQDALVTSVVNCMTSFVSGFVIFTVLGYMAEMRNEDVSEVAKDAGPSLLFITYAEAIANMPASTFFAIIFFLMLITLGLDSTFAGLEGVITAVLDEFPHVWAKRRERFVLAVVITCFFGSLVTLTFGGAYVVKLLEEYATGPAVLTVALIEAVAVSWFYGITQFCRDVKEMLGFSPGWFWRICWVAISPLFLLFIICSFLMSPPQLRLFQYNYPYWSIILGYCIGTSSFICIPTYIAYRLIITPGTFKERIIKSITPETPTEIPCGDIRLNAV

| Structure (SMILES) | Ki [1] | Ki [2] |
| --- | --- | --- |
| CC(C)COc1ncccc1OC(c1ccccc1)[C@H]1CCCNC1 (single isomer, unassigned; stereoisomer a) [Example 92, 2-isobutoxy-3-[((R or S)-phenyl)-((S)-piperidin-3-yl)-methoxy]-pyridine fumaric acid, stereoisomer A] | 140 nM | 29 nM |
| Cc1ccc(OC[C@H]2CCCNC2)c(Oc2ccc(F)cc2C)n1 [Example 1, (S)-2-(4-fluoro-2-methyl-phenoxy)-6-methyl-3-(piperidin-3-ylmethoxy)-pyridine fumaric acid] | 580 nM | 28 nM |
| Cc1ccc(OC[C@H]2CCCNC2)c(Oc2c(C)cccc2C)n1 [Example 2, (S)-2-(2,6-dimethyl-phenoxy)-6-methyl-3-(piperidin-3-ylmethoxy)-pyridine fumaric acid] | ≥ 10000 nM | 17 nM |
| COc1ccccc1Oc1nc(C)ccc1OC[C@H]1CCCNC1 [Example 3, (S)-2-(2-methoxy-phenoxy)-6-methyl-3-(piperidin-3-ylmethoxy)-pyridine fumaric acid] | 1200 nM | 2.2 nM |
| Cc1ccc(OC[C@H]2CCCNC2)c(Oc2ccccc2C)n1 [Example 5, (S)-2-(2-methyl-phenoxy)-6-methyl-3-(piperidin-3-ylmethoxy)-pyridine fumaric acid] | 2800 nM | 8.4 nM |
| Cc1ccc(OC[C@H]2CCCNC2)c(Oc2ccccc2Cl)n1 [Example 7, (S)-2-(2-chloro-phenoxy)-6-methyl-3-(piperidin-3-ylmethoxy)-pyridine fumaric acid] | 350 nM | 2.7 nM |
| COc1cccc(Oc2nc(C)ccc2OC[C@H]2CCCNC2)c1OC [Example 9, (S)-2-(2,3-dimethoxy-phenoxy)-6-methyl-3-(piperidin-3-ylmethoxy)-pyridine fumaric acid] | ≥ 10000 nM | 3200 nM |
| Cc1ccc(OC[C@H]2CCCNC2)c(Oc2ccccc2OC(C)C)n1 [Example 10, (S)-2-[2-(1-methyl-ethoxy)-phenoxy]-6-methyl-3-(piperidin-3-ylmethoxy)-pyridine fumaric acid] | 2600 nM | 10.1 nM |
| Cc1ccc(OC[C@H]2CCCNC2)c(Oc2ccc(Cl)cc2)n1 [Example 13, (S)-2-(4-chloro-phenoxy)-6-methyl-3-(piperidin-3-ylmethoxy)-pyridine fumaric acid] | 140 nM | 8.9 nM |
| Cc1ccc(OC[C@H]2CCCNC2)c(Oc2cccc(Cl)c2)n1 [Example 15, (S)-2-(3-chloro-phenoxy)-6-methyl-3-(piperidin-3-ylmethoxy)-pyridine fumaric acid] | 287 nM | 9.8 nM |
| Cc1ccc(OC[C@H]2CCCNC2)c(Oc2cc(C)c(Cl)cc2C(C)C)n1 [Example 16, (S)-2-[4-chloro-5-methyl-2-(1-methyl-ethyl)-phenoxy]-6-methyl-3-(piperidin-3-ylmethoxy)-pyridine fumaric acid] | 1700 nM | 2600 nM |
| Cc1ccc(OC[C@H]2CCCNC2)c(Oc2ccc(Cl)c(Cl)c2)n1 [Example 17, (S)-2-(3,4-dichloro-phenoxy)-6-methyl-3-(piperidin-3-ylmethoxy)-pyridine fumaric acid] | 63 nM | 12 nM |
| Cc1ccc(OC[C@H]2CCCNC2)c(Oc2ccc3c(c2)CCC3)n1 [Example 18, (S)-2-(2,3-dihydro-1H-inden-5-yloxy)-6-methyl-3-(piperidin-3-ylmethoxy)pyridine fumaric acid] | 620 nM | 54 nM |
| Cc1ccc(OC[C@H]2CCCNC2)c(Oc2cccc3c2CCCC3)n1 [Example 19, (S)-6-methyl-3-(piperidin-3-ylmethoxy)-2-(5,6,7,8-tetrahydronaphthalen-1-yloxy)-pyridine fumaric acid] | 1900 nM | 86 nM |
| Cc1ccc(OC[C@H]2CCCNC2)c(Oc2ccc(C(C)C)cc2)n1 [Example 20, (S)-2-[4-(1-methyl-ethyl)-phenoxy]-6-methyl-3-(piperidin-3-ylmethoxy)-pyridine fumaric acid] | 2400 nM | 4800 nM |
| COc1cccc(F)c1Oc1nc(C)ccc1OC[C@H]1CCCNC1 [Example 21, (S)-2-(2-fluoro-6-methoxy-phenoxy)-6-methyl-3-(piperidin-3-ylmethoxy)-pyridine fumaric acid] | 72 nM | 4.9 nM |
| CC(C)COc1cccc(F)c1OC[C@H]1CCCNC1 [Example 104, (S)-3-(2-fluoro-6-isobutoxy-phenoxymethyl)-piperidine fumaric acid] |  | 26 nM |

The remaining lines, values ahead:

| Ki [1] | Ki [2] | Structure (SMILES) |
| --- | --- | --- |
| 430 nM | 7 nM | CCOc1ccccc1OC(c1ccccc1)[C@H]1CCCNC1 (mixture of isomers) [Example 106, (S)-3-[(2-ethoxy-phenoxy)-(R,S)-phenyl-methyl]-piperidine fumaric acid] |
| 150 nM | 4 nM | Fc1ccc(Oc2ncccc2OC(c2ccccc2)C2CCCNC2)cc1 (single isomer, unassigned; stereoisomer a) [Example 88, 2-(4-fluoro-phenoxy)-3-[((R or S)-phenyl)-((S)-piperidin-3-yl)-methoxy]-pyridine fumaric acid, stereoisomer A] |
| 71 nM | 2 nM | CCOc1ncccc1OC(c1ccccc1)C1CCCNC1 (single isomer, unassigned; stereoisomer a) [Example 90, 2-ethoxy-3-[((R or S)-phenyl)-((S)-piperidin-3-yl)-methoxy]-pyridine fumaric acid, stereoisomer A] |
| 590 nM | 43 nM | Fc1ccc(Oc2ncccc2OC(c2ccccc2)C2CCCNC2)cc1 (single isomer, unassigned; stereoisomer b) [Example 89, 2-(4-fluoro-phenoxy)-3-[((R or S)-phenyl)-((S)-piperidin-3-yl)-methoxy]-pyridine fumaric acid, stereoisomer B] |
| 430 nM | 99 nM | CCOc1ncccc1OC(c1ccccc1)C1CCCNC1 (single isomer, unassigned; stereoisomer b) [Example 91, 2-ethoxy-3-[((R or S)-phenyl)-((S)-piperidin-3-yl)-methoxy]-pyridine fumaric acid, stereoisomer B] |
| 79 nM | 4.7 nM | Cc1ccc(OC[C@H]2CCCNC2)c(Oc2ccc(Cl)cc2Cl)n1 [Example 22, (S)-2-(2,4-dichloro-phenoxy)-6-methyl-3-(piperidin-3-ylmethoxy)-pyridine fumaric acid] |
| 160 nM | 2.7 nM | Cc1ccc(OC[C@H]2CCCNC2)c(Oc2ccc(F)cc2Cl)n1 [Example 24, (S)-2-(2-chloro-4-fluoro-phenoxy)-6-methyl-3-(piperidin-3-ylmethoxy)-pyridine fumaric acid] |
| 860 nM | 18 nM | COc1ccc(Oc2nc(C)ccc2OC[C@H]2CCCNC2)c(Cl)c1 [Example 26, (S)-2-(2-chloro-4-methoxy-phenoxy)-6-methyl-3-(piperidin-3-ylmethoxy)-pyridine fumaric acid] |
| 560 nM | 310 nM | Cc1ccc(OC[C@H]2CCCNC2)c(Oc2cccc(C(F)(F)F)c2)n1 [Example 27, (S)-6-methyl-2-(3-trifluoromethy-phenoxy)-3-(piperidin-3-ylmethoxy)-pyridine fumaric acid] |
| 300 nM | 6.1 nM | COc1cc(F)ccc1Oc1nc(C)ccc1OC[C@H]1CCCNC1 [Example 28, (S)-2-(4-fluoro-2-methoxy-phenoxy)-6-methyl-3-(piperidin-3-ylmethoxy)-pyridine fumaric acid] |
| 230 nM | 15 nM | COc1ccc(Oc2nc(C)ccc2OC[C@H]2CCCNC2)c(F)c1 [Example 30, (S)-2-(2-fluoro-4-methoxy-phenoxy)-6-methyl-3-(piperidin-3-ylmethoxy)-pyridine fumaric acid] |
| 101 nM | 8.4 nM | Cc1ccc(OC[C@H]2CCCNC2)c(Oc2ccc(Cl)c(F)c2)n1 [Example 31, (S)-2-(4-chloro-3-fluoro-phenoxy)-6-methyl-3-(piperidin-3-ylmethoxy)-pyridine fumaric acid] |
